Laboratory results: patent publication US11180470B2, “Herbicidal pyrimidine compounds” (BASF SE, priority 2016, dated 2021)

Legend:
ECHCG [1] = experiment: greenhouse experiment, post-emergence treatment; type: in vivo, Echinocloa crus-galli; conditions: post-emergence method, scale from 0 to 100
Experimental: The seeds of the test plants were sown separately for each species. […] For this purpose, the test plants were either sown directly and grown in the same containers, or they were first grown separately as seedlings and transplanted into the test containers a few days prior to treatment. Depending on the species, the plants were kept at 10-25° C. or 20-35° C., respectively. The test period extended over 2 to 4 weeks. During this time, the plants were tended, and their response to the individual treatments was evaluated. Evaluation was carried out using a scale from 0 to 100. 100 means no emergence of the plants, or complete destruction of at least the aerial moieties, and 0 means no damage, or normal course of growth. A good herbicidal activity is given at values of at least 70 and a very good herbicidal activity is given at values of at least 85. The plants used in the greenhouse experiments were of the following species: [table]

ECHCG [2] = experiment: greenhouse experiment, pre-emergence treatment; type: in vivo, Echinocloa crus-galli; conditions: pre-emergence method, scale from 0 to 100
Description: (§1) The seeds of the test plants were sown separately for each species. For the pre-emergence treatment, the active ingredients, which had been suspended or emulsified in water, were applied directly after sowing by means of finely distributing nozzles. The containers were irrigated gently to promote germination and growth and subsequently covered with transparent plastic hoods until the plants had rooted. This cover caused uniform germination of the test plants, unless this had been impaired by the active ingredients. Depending on the species, the plants were kept at 10-25° C. or 20-35° C., respectively. The test period extended over 2 to 4 weeks. During this time, the plants were tended, and their response to the individual treatments was evaluated. Evaluation was carried out using a scale from 0 to 100. 100 means no emergence of the plants, or complete destruction of at least the aerial moieties, and 0 means no damage, or normal course of growth. A good herbicidal activity is given at values of at least 70 and a very good herbicidal activity is given at values of at least 85. The plants used in the greenhouse experiments were of the following species: [table]

APESV = experiment: greenhouse experiment, pre-emergence treatment; type: in vivo, Apera spica-venti; conditions: pre-emergence method, scale from 0 to 100
Description: as §1

ALOMY = experiment: greenhouse experiment, post-emergence treatment; type: in vivo, Alopecurus myosuroides; conditions: post-emergence method, scale from 0 to 100
Description: (§2) The culture containers used were plastic flowerpots containing loamy sand with approximately 3.0% of humus as the substrate. The seeds of the test plants were sown separately for each species.
(§3) For the post-emergence treatment, the test plants were first grown to a height of 3 to 15 cm, depending on the plant habit, and only then treated with the active ingredients which had been suspended or emulsified in water. For this purpose, the test plants were either sown directly and grown in the same containers, or they were first grown separately as seedlings and transplanted into the test containers a few days prior to treatment.
(§4) Depending on the species, the plants were kept at 10-25° C. or 20-35° C., respectively.
(§5) The test period extended over 2 to 4 weeks. During this time, the plants were tended, and their response to the individual treatments was evaluated.
(§6) Evaluation was carried out using a scale from 0 to 100. 100 means no emergence of the plants, or complete destruction of at least the aerial moieties, and 0 means no damage, or normal course of growth. A good herbicidal activity is given at values of at least 70 and a very good herbicidal activity is given at values of at least 85.
(§7) The plants used in the greenhouse experiments were of the following species: […]

AVEFA = experiment: greenhouse experiment, post-emergence treatment; type: in vivo, Avena fatua; conditions: post-emergence method, scale from 0 to 100
Description: as §2, §3, §4, §5, §6, §7

| Compound | herbicidal activity against ECHCG (ECHCG [1]; application rate 2000 g/ha) | herbicidal activity against ECHCG (ECHCG [2]; application rate 2000 g/ha) | herbicidal activity against APESV (APESV; application rate 2000 g/ha) | herbicidal activity against ALOMY (ALOMY; application rate 2000 g/ha) | further results |
| --- | --- | --- | --- | --- | --- |
| COC(=O)c1nc(C2CC2)ncc1-c1sccc1C [Example 4] | very good (a very good herbicidal activity is given at values of at least 85) | very good (a very good herbicidal activity is given at values of at least 85) | – | – | – |
| COC(=O)c1nc(C2CC2)ncc1-c1ccsc1C [Example 5] | – | very good (a very good herbicidal activity is given at values of at least 85) | – | – | – |
| Cc1cscc1-c1cnc(C2CC2)nc1C(=O)O [Example 6] | very good (a very good herbicidal activity is given at values of at least 85) | very good (a very good herbicidal activity is given at values of at least 85) | very good (a very good herbicidal activity is given at values of at least 85) | – | – |
| COC(=O)c1nc(C2CC2)ncc1-c1cscc1C [Example 7] | very good (a very good herbicidal activity is given at values of at least 85) | very good (a very good herbicidal activity is given at values of at least 85) | – | – | – |
| Cc1sccc1-c1cnc(C2CC2)nc1C(=O)O [Example 8] | – | very good (a very good herbicidal activity is given at values of at least 85) | very good (a very good herbicidal activity is given at values of at least 85) | – | – |
| COC(=O)c1nc(C2CC2)ncc1-c1ccsc1Cl [Example 11] | – | – | – | – | herbicidal activity against ALOMY (ALOMY; application rate 1000 g/ha): very good (a very good herbicidal activity is given at values of at least 85); herbicidal activity against AVEFA (AVEFA; application rate 1000 g/ha): good (A good herbicidal activity is given at values of at least 70); herbicidal activity against ECHCG (ECHCG [2]; application rate 1000 g/ha): very good (a very good herbicidal activity is given at values of at least 85) |
| O=C(O)c1nc(C2CC2)ncc1-c1ccsc1Cl [Example 12] | – | – | – | – | herbicidal activity against ALOMY (ALOMY; application rate 1000 g/ha): very good (a very good herbicidal activity is given at values of at least 85); herbicidal activity against APESV (APESV; application rate 1000 g/ha): very good (a very good herbicidal activity is given at values of at least 85); herbicidal activity against AVEFA (AVEFA; application rate 1000 g/ha): very good (a very good herbicidal activity is given at values of at least 85); herbicidal activity against ECHCG (ECHCG [2]; application rate 1000 g/ha): very good (a very good herbicidal activity is given at values of at least 85) |
| O=C(O)c1nc(C2CC2)ncc1-c1ccoc1Cl [Example 13] | very good (a very good herbicidal activity is given at values of at least 85) | very good (a very good herbicidal activity is given at values of at least 85) | very good (a very good herbicidal activity is given at values of at least 85) | very good (a very good herbicidal activity is given at values of at least 85) | – |
| O=C(O)c1nc(C2CC2)ncc1-c1ccoc1Br [Example 14] | – | – | – | – | herbicidal activity against APESV (APESV; application rate 1000 g/ha): good (A good herbicidal activity is given at values of at least 70); herbicidal activity against ECHCG (ECHCG [2]; application rate 1000 g/ha): very good (a very good herbicidal activity is given at values of at least 85) |
| COC(=O)c1nc(C2CC2)ncc1-c1ccoc1Cl [Example 15] | – | good (A good herbicidal activity is given at values of at least 70) | – | – | – |
| COC(=O)c1nc(C2CC2)ncc1-c1ncccc1Cl [Example 16] | – | – | – | – | herbicidal activity against ALOMY (ALOMY; application rate 1000 g/ha): very good (a very good herbicidal activity is given at values of at least 85); herbicidal activity against APESV (APESV; application rate 1000 g/ha): good (A good herbicidal activity is given at values of at least 70); herbicidal activity against ECHCG (ECHCG [1]; application rate 1000 g/ha): very good (a very good herbicidal activity is given at values of at least 85); herbicidal activity against AVEFA (AVEFA; application rate 1000 g/ha): good (A good herbicidal activity is given at values of at least 70); herbicidal activity against ECHCG (ECHCG [2]; application rate 1000 g/ha): good (A good herbicidal activity is given at values of at least 70) |
| O=C(O)c1nc(C2CC2)ncc1-c1cccnc1Br [Example 20] | very good (a very good herbicidal activity is given at values of at least 85) | very good (a very good herbicidal activity is given at values of at least 85) | very good (a very good herbicidal activity is given at values of at least 85) | – | herbicidal activity against AVEFA (AVEFA; application rate 2000 g/ha): very good (a very good herbicidal activity is given at values of at least 85) |
| COC(=O)c1nc(C2CC2)ncc1-c1ncc(F)cc1Br [Example 21] | very good (a very good herbicidal activity is given at values of at least 85) | very good (a very good herbicidal activity is given at values of at least 85) | very good (a very good herbicidal activity is given at values of at least 85) | very good (a very good herbicidal activity is given at values of at least 85) | herbicidal activity against AVEFA (AVEFA; application rate 2000 g/ha): very good (a very good herbicidal activity is given at values of at least 85) |
| O=C(O)c1nc(C2CC2)ncc1-c1ncccc1F [Example 23] | very good (a very good herbicidal activity is given at values of at least 85) | very good (a very good herbicidal activity is given at values of at least 85) | very good (a very good herbicidal activity is given at values of at least 85) | very good (a very good herbicidal activity is given at values of at least 85) | – |
| COC(=O)c1nc(C2CC2)ncc1-c1cccnc1F [Example 25] | – | – | – | – | herbicidal activity against ECHCG (ECHCG [1]; application rate 1000 g/ha): very good (a very good herbicidal activity is given at values of at least 85) |
| O=C(O)c1nc(C2CC2)ncc1-c1ncccc1Br [Example 29] | very good (a very good herbicidal activity is given at values of at least 85) | good (A good herbicidal activity is given at values of at least 70) | good (A good herbicidal activity is given at values of at least 70) | very good (a very good herbicidal activity is given at values of at least 85) | herbicidal activity against AVEFA (AVEFA; application rate 2000 g/ha): very good (a very good herbicidal activity is given at values of at least 85) |
| O=C(O)c1nc(C2CC2)ncc1-c1ncc(F)cc1F [Example 36] | – | very good (a very good herbicidal activity is given at values of at least 85) | very good (a very good herbicidal activity is given at values of at least 85) | very good (a very good herbicidal activity is given at values of at least 85) | herbicidal activity against AVEFA (AVEFA; application rate 2000 g/ha): very good (a very good herbicidal activity is given at values of at least 85) |
| O=C(O)c1nc(C2CC2)ncc1-c1ccncc1F [Example 37] | good (A good herbicidal activity is given at values of at least 70) | very good (a very good herbicidal activity is given at values of at least 85) | good (A good herbicidal activity is given at values of at least 70) | good (A good herbicidal activity is given at values of at least 70) | – |
| CCc1ncc(-c2ncccc2Br)c(C(=O)OC)n1 [Example 43] | – | very good (a very good herbicidal activity is given at values of at least 85) | – | – | – |
| CCc1ncc(-c2ncccc2F)c(C(=O)O)n1 [Example 50] | – | – | – | – | herbicidal activity against ECHCG (ECHCG [1]; application rate 1000 g/ha): very good (a very good herbicidal activity is given at values of at least 85) |
| COc1ncc(-c2ncccc2Br)c(C(=O)O)n1 [Example 51] | good (A good herbicidal activity is given at values of at least 70) | – | – | good (A good herbicidal activity is given at values of at least 70) | herbicidal activity against AVEFA (AVEFA; application rate 2000 g/ha): good (A good herbicidal activity is given at values of at least 70) |
